Each structure is given as a SMILES string.

The text below walks through data of patent US9783488B2 (CHDI Foundation, Inc., priority 2013, dated 2017).

The target in assay [1] is human catalytic domain HDAC4 protein (amino acids 648-1032) (Homo sapiens (Human), UniProt P56524). Nature of the assay: Inhibition of HDAC4 catalytic domain enzymatic activity, fluorogenic substrate Boc-Lys(Tfa)-AMC. The following applies: HDAC4 catalytic domain enzyme, read-out: Biochemical HDAC4 IC50. An excerpt:
Analysis of Inhibition of HDAC4 with Class IIa Histone Deacetylase (HDAC) Inhibitors
The potency of Class IIa Histone Deacetylase (HDAC) inhibitors is quantified by measuring the Histone Deacetylase 4 (HDAC4) catalytic domain enzymatic activity using the fluorogenic substrate, Boc-Lys(Tfa)-AMC. The substrate is deacetylated to Boc-Lys-AMC by HDAC4. Cleavage by trypsin results in the release of the fluorophore AMC from the deacetylated substrate. The fluorescence of the sample is directly related to the histone deacetylase activity in the sample.
Serially dilute HDAC inhibitor compounds. […] Stocks of 6 μl aliquots of the 10 mM compound in DMSO are prepared and stored at […]. From one stock aliquot of each compound to be tested and the reference compound, a 16-point serial dilution is prepared according to Table 1 using a 125 μl 16-channel Matrix multi-channel pipette (Matrix Technologies Ltd).
2 μl (200×) of each diluted solution and each control (full activity: 100% DMSO alone or full inhibition 1 mM) is stamped into V-bottomed polypropylene 384-well compound plates using either the Bravo (384-well head from Agilent) or 12.5 μl 16-channel Matrix multi-channel pipette (Matrix Technologies Ltd).
Prepare HDAC4 catalytic domain enzyme (0.2 μg/mL).
Prepare 5× ([…]) Boc-Lys(Tfa)-AMC Substrate. 5× (50 μM) substrate is prepared just prior to the addition to the assay. A 1 mM substrate stock is made by diluting a 100 mM Boc-Lys(Tfa)-AMC in DMSO solution 1:100 by adding it drop-wise to assay buffer (equilibrated to r.t.) while vortexing at slow speed to prevent precipitation. The 5× substrate is prepared by diluting the 1 mM substrate solution 1:20 by adding it drop-wise to assay buffer (equilibrated to r.t.) while vortexing at slow speed to prevent precipitation.
Prepare 3× (30 μM) Developer/Stop Solution.
Assay. 5 μl of each solution of 1:20 diluted compound from above is transferred to a clear bottomed, black, 384-well assay plate using the Bravo or the Janus (384-well MDT head from Perkin Elmer). Using a 16-channel Matrix multi-channel pipette, 35 μl of the working solution of HDAC4 catalytic domain enzyme (0.2 μg/mL in assay buffer) is transferred to the assay plate. […] The assay plate is then shaken for two minutes on an orbital shaker at 900 rpm (rotations per minute). Next the plate is incubated for 15 minutes at 37° C. The reaction is stopped by adding 25 μl of 3× (3 μM) developer/stop solution to the assay plates using either the Bravo, Janus or a 16-channel Matrix multi-channel pipette. Assay plates are then shaken for 5 minutes on an orbital shaker at 1200 rpm. Next, the assay plates are incubated at 37° C. for 1 hour in a tissue culture incubator.

The subject of assay [2] is cellular histone deacetylase enzymatic activity in Jurkat E6-1 cells. Put plainly: Inhibition of cellular HDAC activity in Jurkat E6-1 cells, fluorogenic substrate Boc-Lys(Tfa)-AMC. Format: cell-based. The following applies: Homo sapiens, read-out: Cell IC50. From the text: Analysis of Inhibition of Cellular HDAC Activity with Class IIa Histone Deacetylase (HDAC) Inhibitors
The potency of Class IIa Histone Deacetylase (HDAC) inhibitors is quantified by measuring the cellular histone deacetylase enzymatic activity using the fluorogenic substrate, Boc-Lys(Tfa)-AMC. After penetration in Jurkat E6-1 cells, the substrate is deacetylated to Boc-Lys-AMC. After cell lysis and cleavage by trypsin, the fluorophore AMC is released from the deacetylated substrate only. The fluorescence of the sample is directly related to the histone deacetylase activity in the sample.
Jurkat E6.1 cell culture and plating. Jurkat E6.1 cells are cultured according to standard cell culture protocols in Jurkat E6.1 Growth Media (RPMI without phenol red, 10% FBS, 1 mM HEPES, and 1 mM Sodium Pyruvate). Jurkat E6.1 cells are counted using a Coulter Counter and resuspended in Jurkat E6.1 growth media at a concentration of 75,000 cells/35 μl. 35 μl or 75,000 cells is seeded into Greiner microtitre assay plates. The plates are then incubated at 37° C. and 5% CO2 while other assay components are being prepared.
Serially dilute HDAC inhibitor compounds. Serial dilutions of the HDAC inhibitors and control reference compound (1-(5-(3-((4-(1,3,4-oxadiazol-2-yl)phenoxy)methyl)-1,2,4-oxadiazol-5-yl)thiophen-2-yl)-2,2,2-trifluoroethanone) are made by first resuspending the lyophilized compound to a final concentration of 10 mM in […]. Stocks of 70 μl aliquots of the 10 mM compound in DMSO are prepared and stored at −20° C. From one stock aliquot of each compound to be tested and the reference compound, a 16-point serial dilution is prepared according to Table 1 using a 125 μl 16-channel Matrix multi-channel pipette.
2 μl (200×) of each diluted solution and each control (full activity: 100% DMSO alone or full inhibition 1 mM) is stamped into V-bottom polypropylene 384-well compound plates using either the Bravo, Janus, or 12.5 μl 16-channel Matrix multi-channel pipette. Each well with the 200× compound solution is diluted 1:20 by the addition of 38 μl Jurkat assay buffer+DMSO (9.5% DMSO, RPMI without phenol red, 0.09% FBS, 9 mM Hepes, and 0.9 mM Sodium Pyruvate equilibrated to r.t.)
Prepare 5× (500 μM) Boc-Lys(Tfa)-AMC substrate. 5× (500 μM) substrate is prepared just prior to the addition to the assay. The 5× substrate is prepared by diluting a 100 mM Boc-Lys(Tfa)-AMC in DMSO solution 1:200 by adding it drop-wise to Jurkat assay medium (RPMI without phenol red, 0.1% FBS, 10 mM Hepes, and 1 mM Sodium Pyruvate equilibrated to 37° C.) while vortexing at slow speed to prevent precipitation.
Prepare 3× Lysis Buffer. 10 mL of 3× lysis buffer is prepared with 8.8 mL of 3× stock lysis buffer (50 mM Tris-HCl, pH 8.0, 137 mM NaCl, 2.7 mM KCl, 1 mM MgCl2, 1% Nonidet P40 Substitute equilibrated to r.t.) and 1.2 mL of 3 mg/mL Trypsin equilibrated to r.t.
Assay. 5 μl of each solution of 1:20 diluted compound from above is transferred to the Greiner microtitre assay plates with 75,000 cells/well using the Bravo. Cells are then incubated for 2 hours at 37° C. and 5% CO2. The assay is then started by adding 10 μl of 5× (500 μM) substrate to the assay plate using either the Bravo or 16-channel Matrix multi-channel pipette. The cells are then incubated for 3 hours at 37° C. and 5% CO2. Next, 25 μl of 3× lysis buffer is added to each well using either the 125 μl 16 channel pipette or the Bravo. The assay plate is then incubated overnight (15-16 hours) at 37° C. and 5% CO2. The following day, the plates are shaken on an orbital shaker for 1 minute at 900 rpm. Finally the top read fluorescence (Excitation: 355 nm, Emission: 460 nm) is measured using PerkinElmer EnVision.

Sequence of human catalytic domain HDAC4 protein (amino acids 648-1032) (P56524 648-1032): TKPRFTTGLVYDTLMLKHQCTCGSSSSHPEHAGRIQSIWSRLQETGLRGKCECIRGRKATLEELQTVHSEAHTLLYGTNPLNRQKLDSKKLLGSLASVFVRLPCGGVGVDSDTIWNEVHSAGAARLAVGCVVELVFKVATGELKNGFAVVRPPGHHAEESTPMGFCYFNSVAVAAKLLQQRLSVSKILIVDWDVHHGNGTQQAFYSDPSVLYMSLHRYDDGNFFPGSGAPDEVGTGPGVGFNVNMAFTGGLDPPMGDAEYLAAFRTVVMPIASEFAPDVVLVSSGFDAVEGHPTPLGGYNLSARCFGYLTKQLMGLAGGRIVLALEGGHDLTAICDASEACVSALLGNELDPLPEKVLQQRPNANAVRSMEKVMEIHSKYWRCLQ

What is called IC50 is the concentration that gives 50% inhibition. Take `Cc1c(F)cccc1[C@]1(C(=O)NO)CC[C@@H](c2ccc3cn[nH]c3c2F)C1` (relative stereo) [Example 61, (1S,3R*)-3-(7-fluoro-1H-indazol-6-yl)-1-(3-fluoro-2-methylphenyl)-N-hydroxycyclopentanecarboxamide]: the IC50 in assay [1] came to 0.073 µM; in assay [2], 0.081 µM.

On to `Cc1c(F)cccc1[C@]1(C(=O)NO)CC[C@@H](c2ccc3oc(C4CC4)nc3c2)C1` (relative stereo) [Example 62, (1S,3R*)-3-(2-cyclopropylbenzo[d]oxazol-5-yl)-1-(3-fluoro-2-methylphenyl)-N-hydroxycyclopentanecarboxamide], for which the IC50 in assay [1] is 0.28 µM; in assay [2], 0.41 µM.

For `Cc1c(F)cccc1[C@]1(C(=O)NO)CC[C@@H](c2ccc3c(cnn3C)c2)C1` (relative stereo) [Example 63, (1S,3R*)-1-(3-fluoro-2-methylphenyl)-N-hydroxy-3-(1-methyl-1H-indazol-5-yl)cyclopentanecarboxamide], the figures for the IC50 in assay [1] and in assay [2] were 0.11 µM and 0.14 µM, respectively.

Consider `Cc1c(F)cccc1[C@]1(C(=O)NO)CC[C@H](c2ccc3c(cnn3C)c2)C1` (relative stereo) [Example 64, (1S,3S*)-1-(3-fluoro-2-methylphenyl)-N-hydroxy-3-(1-methyl-1H-indazol-5-yl)cyclopentanecarboxamide], for which the IC50 came out at 0.1 µM in assay [1] and 0.22 µM in assay [2].

Consider `Cc1c(F)cccc1[C@]1(C(=O)NO)CC[C@@H](c2ccc3cn(C(F)F)nc3c2)C1` (relative stereo) [Example 65, (1S,3R*)-3-(2-(difluoromethyl)-2H-indazol-6-yl)-1-(3-fluoro-2-methylphenyl)-N-hydroxycyclopentanecarboxamide], for which the IC50 in assay [1] was 0.11 µM; in assay [2] it was 0.099 µM.

For the molecule `Cc1c(F)cccc1[C@]1(C(=O)NO)CC[C@H](c2ccc3cn(C(F)F)nc3c2)C1` (relative stereo) [Example 66, (1S,3S*)-3-(2-(difluoromethyl)-2H-indazol-6-yl)-1-(3-fluoro-2-methylphenyl)-N-hydroxycyclopentanecarboxamide], the figures for the IC50 in assay [1] and in assay [2] were 0.22 µM and 0.19 µM, respectively.

For `Cc1c(F)cccc1[C@]1(C(=O)NO)CC[C@@H](c2ccc3c(F)nn(C)c3c2)C1` (relative stereo) [Example 67, (1S,3R*)-3-(3-fluoro-1-methyl-1H-indazol-6-yl)-1-(3-fluoro-2-methylphenyl)-N-hydroxycyclopentanecarboxamide], the IC50 in assay [1] worked out at 0.4 µM; in assay [2], 0.36 µM.

On to `Cc1c(F)cccc1[C@]1(C(=O)NO)CC[C@H](c2ccc3c(F)nn(C)c3c2)C1` (relative stereo) [Example 68, (1S,3S*)-3-(3-fluoro-1-methyl-1H-indazol-6-yl)-1-(3-fluoro-2-methylphenyl)-N-hydroxycyclopentanecarboxamide], for which the IC50 in assay [1] came out at 0.32 µM; in assay [2], 0.21 µM.

Turning to `Cc1c(F)cccc1[C@]1(C(=O)NO)CC[C@@H](c2ccc3c(c2)ncn3C)C1` (relative stereo) [Example 69, (1S,3R*)-1-(3-fluoro-2-methylphenyl)-N-hydroxy-3-(1-methyl-1H-benzo[d]imidazol-5-yl)cyclopentanecarboxamide], the IC50 in assay [1] is 0.09 µM; in assay [2], 0.2 µM.

As for `Cc1c(F)cccc1[C@]1(C(=O)NO)CC[C@@H](c2ccc3ncn(C)c3c2)C1` (relative stereo) [Example 70, (1S,3R*)-1-(3-Fluoro-2-methylphenyl)-N-hydroxy-3-(1-methyl-1H-benzo[d]imidazol-6-yl)cyclopentanecarboxamide], the IC50 in assay [1] stood at 0.11 µM; in assay [2], 0.13 µM.

`Cc1c(F)cccc1[C@]1(C(=O)NO)CC[C@H](c2ccc3ncn(C)c3c2)C1` (relative stereo) [Example 71, (1S,3S*)-1-(3-Fluoro-2-methylphenyl)-N-hydroxy-3-(1-methyl-1H-benzo[d]imidazol-6-yl)cyclopentanecarboxamide]: the concentration for half-maximal inhibition (IC50) in assay [1] came to 0.059 µM; in assay [2], 0.11 µM.

For `Cc1c(F)cccc1[C@]1(C(=O)NO)CC[C@@H](c2ccc3c(c2)NCC(C)(C)O3)C1` (relative stereo) [Example 72], the values for the IC50 in assay [1] and in assay [2] were 0.3 µM and 0.47 µM, respectively.

Turning to `Cc1c(F)cccc1[C@]1(C(=O)NO)CC[C@H](c2ccc3c(c2)NCC(C)(C)O3)C1` (relative stereo) [Example 73], the IC50 was determined as 0.27 µM in assay [1] and 0.41 µM in assay [2].

`Cc1c(F)cccc1[C@]1(C(=O)NO)CC[C@@H](c2ccc3nc(C(F)(F)F)[nH]c3c2)C1` (relative stereo) [Example 74, (1S,3R*)-1-(3-Fluoro-2-methylphenyl)-N-hydroxy-3-(2-(trifluoromethyl)-1H-benzo[d]imidazol-6-yl)cyclopentanecarboxamide]: the IC50 in assay [1] is 0.074 µM; in assay [2] it was 0.11 µM.

For `Cc1c(F)cccc1[C@]1(C(=O)NO)CC[C@H](c2nc3ccccc3s2)C1` (relative stereo) [Example 75, (1S,3S*)-3-(Benzo[d]thiazol-2-yl)-1-(3-fluoro-2-methylphenyl)-N-hydroxycyclopentanecarboxamide], the IC50 in assay [1] was 0.08 µM; in assay [2], 0.16 µM.

Consider `Cc1c(F)cccc1[C@]1(C(=O)NO)CC[C@@H](c2nc3ccccc3s2)C1` (relative stereo) [Example 76, (1S,3R*)-3-(Benzo[d]thiazol-2-yl)-1-(3-fluoro-2-methylphenyl)-N-hydroxycyclopentanecarboxamide], for which the IC50 in assay [1] was 0.16 µM; in assay [2], 0.24 µM.
